Results reported in PubChem BioAssay AID330 (DTP/NCI, 2004).
“And” between values parts separate entries of the source, which are not always exact repeats. Equal entries are not always repeated. Toxic doses and inconclusive results are not listed.

Test system: P388 leukemia ip, CD2F1 mice, survival T/C
Experiment: NCI In Vivo Anticancer Drug Screen. Data for tumor model P388 Leukemia (intraperitoneal) in CD2F1 (CDF1) mice
Details: endpoint: median survival time, higher = longer survival
In short: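 Mice carrying the transplanted tumor received test compound or vehicle. Survival was recorded in each group, and the value is the treated-group measurement divided by that of the vehicle-treated control group.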

[1] = dose: 6.25 mg/kg/injection, schedule: Q01DX009 (ip), vehicle: saline with Tween-80
[2] = dose: 12.5 mg/kg/injection, schedule: Q01DX009 (ip), vehicle: saline with Tween-80
[3] = dose: 25.0 mg/kg/injection, schedule: Q01DX009 (ip), vehicle: saline with Tween-80
[4] = dose: 60.0 mg/kg/injection, schedule: Q01DX005 (ip), vehicle: saline with Tween-80
[5] = dose: 120.0 mg/kg/injection, schedule: Q01DX005 (ip), vehicle: saline with Tween-80
[6] = dose: 50.0 mg/kg/injection, schedule: Q01DX009 (ip), vehicle: Klucel (hydroxypropylcellulose) (HPC)
[7] = dose: 100.0 mg/kg/injection, schedule: Q01DX009 (ip), vehicle: Klucel (hydroxypropylcellulose) (HPC)
[8] = dose: 200.0 mg/kg/injection, schedule: Q01DX009 (ip), vehicle: Klucel (hydroxypropylcellulose) (HPC)

Structure (SMILES): CC1=NCCN=C(C)C1N=Nc1ccc(S(=O)(=O)Nc2ncccn2)cc1
- T/C (dose: 100.0 mg/kg/injection, schedule: Q04DX003 (ip), vehicle: saline with Tween-80): 96 % of control
- T/C (dose: 200.0 mg/kg/injection, schedule: Q04DX003 (ip), vehicle: saline with Tween-80): 93 % of control
- T/C (dose: 400.0 mg/kg/injection, schedule: Q04DX003 (ip), vehicle: saline with Tween-80): 99 % of control

Structure (SMILES): Nc1nnc(SCc2ccccc2)s1
- T/C (dose: 3.13 mg/kg/injection, schedule: Q01DX009 (ip), vehicle: saline with Tween-80): 102 % of control
- T/C [1]: 104 % of control
- T/C [2]: 109 % of control
- T/C [3]: 103 % of control

Structure (SMILES): O=c1c2ccccc2n2nc3ccccc3c2n1-c1ccccc1
- T/C (dose: 93.25 mg/kg/injection, schedule: Q04DX002 (ip), vehicle: Klucel (hydroxypropylcellulose) (HPC)): 104 % of control
- T/C (dose: 186.5 mg/kg/injection, schedule: Q04DX002 (ip), vehicle: Klucel (hydroxypropylcellulose) (HPC)): 98 % of control
- T/C (dose: 373.0 mg/kg/injection, schedule: Q04DX002 (ip), vehicle: Klucel (hydroxypropylcellulose) (HPC)): 95 % of control

Structure (SMILES): CCOc1ccc(/C=N/NC(=O)C(O)c2ccccc2)cc1OC (configuration not stated)
- T/C [4]: 96 % of control
- T/C [5]: 100 % of control
- T/C (dose: 240.0 mg/kg/injection, schedule: Q01DX005 (ip), vehicle: saline with Tween-80): 94 % of control

Structure (SMILES): NC(COC(=O)NCCCl)C(=O)O (configuration not stated)
- T/C [6]: 88 % of control
- T/C [7]: 93 % of control
- T/C [8]: 111 % of control

Structure (SMILES): O=C(NCCN(C(=O)C12CC3CC(CC(C3)C1)C2)c1ccc(F)cc1)C12CC3CC(CC(C3)C1)C2
- T/C [1]: 105 % of control
- T/C [2]: 92 % of control
- T/C [3]: 100 % of control

Structure (SMILES): O=C(NC(c1ccccc1)c1ccccc1)OCc1c2ccccc2cc2ccccc12
- T/C [6]: 88 % of control
- T/C [7]: 100 % of control
- T/C [8]: 100 % of control

Structure (SMILES): CCn1cc(C(=O)O)c(=O)c2ccc(C)[n+](C)c21
- T/C (dose: 100.0 mg/kg/injection, schedule: Q04DX002 (ip), vehicle: saline): 99 % of control
- T/C (dose: 200.0 mg/kg/injection, schedule: Q04DX002 (ip), vehicle: saline): 100 % of control
- T/C (dose: 400.0 mg/kg/injection, schedule: Q04DX002 (ip), vehicle: saline): 98 % of control

Structure (SMILES): Cc1c2ccnc(C(N)=O)c2c(C)c2c1[nH]c1ccccc12
- T/C (dose: 6.25 mg/kg/injection, schedule: Q04DX002 (ip), vehicle: distilled water + Tween-80): 99 % of control
- T/C (dose: 6.25 mg/kg/injection, schedule: Q04DX003 (ip), vehicle: distilled water + Tween-80): 111 % of control
- T/C (dose: 12.5 mg/kg/injection, schedule: Q04DX002 (ip), vehicle: distilled water + Tween-80): 99 % of control
- T/C (dose: 12.5 mg/kg/injection, schedule: Q04DX003 (ip), vehicle: distilled water + Tween-80): 112 % of control
- T/C (dose: 25.0 mg/kg/injection, schedule: Q04DX002 (ip), vehicle: distilled water + Tween-80): 99 % of control
- T/C (dose: 25.0 mg/kg/injection, schedule: Q04DX003 (ip), vehicle: distilled water + Tween-80): 112 % of control
- T/C (dose: 50.0 mg/kg/injection, schedule: Q04DX002 (ip), vehicle: distilled water + Tween-80): 104 % of control
- T/C (dose: 50.0 mg/kg/injection, schedule: Q04DX003 (ip), vehicle: distilled water + Tween-80): 104 % of control
- T/C (dose: 100.0 mg/kg/injection, schedule: Q04DX002 (ip), vehicle: distilled water + Tween-80): 104 % of control and 111 % of control
- T/C (dose: 100.0 mg/kg/injection, schedule: Q04DX003 (ip), vehicle: distilled water + Tween-80): 111 % of control
- T/C (dose: 200.0 mg/kg/injection, schedule: Q04DX002 (ip), vehicle: distilled water + Tween-80): 118 % of control
- T/C (dose: 200.0 mg/kg/injection, schedule: Q04DX003 (ip), vehicle: distilled water + Tween-80): 115 % of control
- T/C (dose: 800.0 mg/kg/injection, schedule: Q04DX002 (ip), vehicle: distilled water + Tween-80): 155 % of control

Structure (SMILES): CCNC(=O)OCc1c(C)nc2n1CCS2
- T/C (dose: 50.0 mg/kg/injection, schedule: Q01DX005 (ip), vehicle: Klucel (hydroxypropylcellulose) (HPC)): 115 % of control
- T/C (dose: 100.0 mg/kg/injection, schedule: Q01DX005 (ip), vehicle: Klucel (hydroxypropylcellulose) (HPC)): 112 % of control

Structure (SMILES): CCC1C2CC3C4N(C)c5ccccc5C45CC(C2C5O)N3C1O (configuration not stated)
- T/C (dose: 0.31 mg/kg/injection, schedule: Q01DX009 (ip), vehicle: saline): 102 % of control and 106 % of control
- T/C (dose: 0.62 mg/kg/injection, schedule: Q01DX009 (ip), vehicle: saline): 99 % of control and 106 % of control and 121 % of control
- T/C (dose: 1.25 mg/kg/injection, schedule: Q01DX009 (ip), vehicle: saline): 102 % of control and 106 % of control and 95 % of control
- T/C (dose: 2.5 mg/kg/injection, schedule: Q01DX009 (ip), vehicle: saline): 99 % of control and 105 % of control (2×)
- T/C (dose: 5.0 mg/kg/injection, schedule: Q01DX009 (ip), vehicle: saline): 102 % of control
- T/C (dose: 10.0 mg/kg/injection, schedule: Q01DX009 (ip), vehicle: saline): 105 % of control
- T/C (dose: 15.0 mg/kg/injection, schedule: Q01DX005 (ip), vehicle: saline with Tween-80): 100 % of control
- T/C (dose: 30.0 mg/kg/injection, schedule: Q01DX005 (ip), vehicle: saline with Tween-80): 94 % of control
- T/C [4]: 93 % of control and 100 % of control
- T/C [5]: 93 % of control

Structure (SMILES): Cc1ccc2c(c1)NC(=S)N=S2(C)=O (configuration not stated)
- T/C (dose: 50.0 mg/kg/injection, schedule: Q01DX009 (ip), vehicle: saline with Tween-80): 95 % of control
- T/C (dose: 100.0 mg/kg/injection, schedule: Q01DX009 (ip), vehicle: saline with Tween-80): 93 % of control
- T/C (dose: 200.0 mg/kg/injection, schedule: Q01DX009 (ip), vehicle: saline with Tween-80): 102 % of control

Structure (SMILES): C=CC(C)n1ccnc1 (configuration not stated)
- T/C (dose: 50.0 mg/kg/injection, schedule: Q01DX009 (ip), vehicle: saline): 101 % of control
- T/C (dose: 100.0 mg/kg/injection, schedule: Q01DX009 (ip), vehicle: saline): 97 % of control
- T/C (dose: 200.0 mg/kg/injection, schedule: Q01DX009 (ip), vehicle: saline): 102 % of control

Structure (SMILES): C=Cc1c(C)c(O)cc2c1-c1ccc(O)c(C)c1CC2
- T/C (dose: 25.0 mg/kg/injection, schedule: Q01DX009 (ip), vehicle: Klucel (hydroxypropylcellulose) (HPC)): 104 % of control
- T/C [6]: 100 % of control
- T/C [7]: 92 % of control
- T/C [8]: 93 % of control

Structure (SMILES): CCN=C(C1=C(O)c2ccccc2C1=O)c1ccccc1
- T/C (dose: 50.0 mg/kg/injection, schedule: Q04DX002 (ip), vehicle: saline with Tween-80): 94 % of control
- T/C (dose: 100.0 mg/kg/injection, schedule: Q04DX002 (ip), vehicle: saline with Tween-80): 119 % of control
- T/C (dose: 200.0 mg/kg/injection, schedule: Q04DX002 (ip), vehicle: saline with Tween-80): 111 % of control

Structure (SMILES): CN(C)c1ccc(/C=C/c2ccnc3c2ccc2ccccc23)cc1
- T/C (dose: 37.5 mg/kg/injection, schedule: Q04DX003 (ip), vehicle: Klucel (hydroxypropylcellulose) (HPC)): 108 % of control
- T/C (dose: 50.0 mg/kg/injection, schedule: Q01DX001 (ip), vehicle: saline with Tween-80): 106 % of control
- T/C (dose: 75.0 mg/kg/injection, schedule: Q04DX003 (ip), vehicle: Klucel (hydroxypropylcellulose) (HPC)): 89 % of control
- T/C (dose: 100.0 mg/kg/injection, schedule: Q01DX001 (ip), vehicle: saline with Tween-80): 93 % of control
- T/C (dose: 150.0 mg/kg/injection, schedule: Q04DX003 (ip), vehicle: Klucel (hydroxypropylcellulose) (HPC)): 103 % of control
- T/C (dose: 200.0 mg/kg/injection, schedule: Q01DX001 (ip), vehicle: saline with Tween-80): 91 % of control
- T/C (dose: 300.0 mg/kg/injection, schedule: Q04DX003 (ip), vehicle: Klucel (hydroxypropylcellulose) (HPC)): 96 % of control
- T/C (dose: 400.0 mg/kg/injection, schedule: Q01DX001 (ip), vehicle: saline with Tween-80): 91 % of control

Structure (SMILES): CO[C@@]12[C@H](COC(N)=O)C3=C(C(=O)C(C)=C(NCCO)C3=O)N1C[C@@H]1N[C@@H]12
- T/C (dose: 12.5 mg/kg/injection, schedule: Q01DX009 (ip), vehicle: saline sonified): 95 % of control
- T/C (dose: 12.5 mg/kg/injection, schedule: Q04DX003 (ip), vehicle: saline with Tween-80): 100 % of control
- T/C (dose: 25.0 mg/kg/injection, schedule: Q01DX009 (ip), vehicle: saline sonified): 95 % of control
- T/C (dose: 25.0 mg/kg/injection, schedule: Q04DX003 (ip), vehicle: saline with Tween-80): 100 % of control
- T/C (dose: 50.0 mg/kg/injection, schedule: Q01DX009 (ip), vehicle: saline sonified): 95 % of control
- T/C (dose: 50.0 mg/kg/injection, schedule: Q04DX003 (ip), vehicle: saline with Tween-80): 100 % of control
